The source of these data is PubChem BioAssay (NCI).

Values joined by “and” are separate entries in the source; they are usually repeats but may differ in a detail not shown here. Identical values can stand only once.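 Results reflect a 48-hour exposure of cells in 96-well plates to compound at five concentrations. Here, GI50 denotes the concentration required for 50% inhibition of growth. TGI marks complete inhibition of growth.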

What all share (assay): inhibition of tumour cell growth, NCI panel, 48 h
Assay [1] concerns MALME-3M melanoma.
Assay [2] deals with RPMI-8226 leukemia.
Assay [3] deals with SR leukemia.
For assay [4], the system named is UO-31 renal.
For assay [5], the system named is SF-539 CNS.
In assay [6] the test system is OVCAR-5 ovarian.
The subject of assay [7] is A549 NSCLC.
For assay [8], the system named is SK-MEL-2 melanoma.
In assay [9] the test system is MOLT-4 leukemia.
For assay [10], the system named is KM12 colon.

Regarding `CC(C)N(Cc1ccc(F)cc1)c1ccc(CO)c(Cl)c1`, the GI50 in [1] was 14.4 µM; in assay [2] it was 1.46 µM; in assay [3], 12.8 µM; in [4], 0.732 µM; in assay [5], 13.4 µM; in [6], 0.0576 µM. Besides, the GI50 is 1.03 µM in [7], 1.61 µM in assay [8], 11 µM in assay [9] and 10.9 µM in [10]. Further, the TGI in assay [1] worked out at 30.3 µM; in assay [2] it was 20.1 µM; in [3], 32.5 µM; in [4], 14.2 µM; in assay [5], 26.5 µM; in assay [6], 0.247 µM. Also, the TGI in assay [7] was found to be 17.5 µM; in assay [8] it was 16.6 µM; in assay [9], 32.6 µM; in assay [10] it was 23.4 µM.

With `NCc1ccc(-c2nc(-c3ccc(Cl)c(O)c3)c(-c3ccncc3)[nH]2)cc1`, the GI50 in assay [1] was 2.72 µM; in assay [2] it was above 25 µM; in assay [3], above 25 µM; in assay [4], 17.2 µM; in [5], above 25 µM; in assay [6], above 25 µM. Moreover, the GI50 was above 25 µM in assay [7], 1.65 µM in assay [8], above 25 µM in assay [9] and above 25 µM in assay [10]. Besides, the TGI in assay [1] is 11.2 µM; in assay [2], above 25 µM; in [3], above 25 µM; in [4], above 25 µM; in [5], above 25 µM; in [6] it was above 25 µM. Besides, the TGI is above 25 µM in [7], 9.86 µM in assay [8], above 25 µM in assay [9] and above 25 µM in assay [10].

Consider `C/C(=N\NC(=S)N1CCN(c2ccccn2)CC1)c1ncccn1`, for which the GI50 was 0.55 µM in assay [1]; below 0.0205 µM in assay [2]; 0.0622 µM in assay [3]; 0.535 µM in assay [4]; 0.655 µM in assay [5]; 0.117 µM in assay [7]. Moreover, the results for the GI50 in assay [8] and in assay [10] were 2.48 µM and 0.153 µM, respectively. In addition, the TGI was 5.93 µM and 18.3 µM in assay [1]; 2.94 µM and 12.1 µM in assay [2]; 12.3 µM in assay [3]; 4.58 µM and 13.7 µM in assay [4]; 6.38 µM and 15.9 µM in assay [5]; 4.77 µM and 21.5 µM in assay [6]. Besides, the TGI was 5.91 µM and 13.2 µM in [7]; 5.88 µM and 18.5 µM in [8]; 7.02 µM and > 38.4 µM in [9]; 5.92 µM and 15.1 µM in [10].

For `COc1ccc(C2CC(c3ccc(N(C)C)cc3)=NN2c2ccc(S(N)(=O)=O)cc2)cc1` (centres undefined), the GI50 in assay [1] is 4.12 µM; in assay [2], 3.26 µM; in assay [3], 3.77 µM; in assay [4] it was 3.01 µM; in assay [5], 4.32 µM; in assay [6] it was 6.57 µM. Besides, the GI50 in assay [7] was 3.16 µM; in [8], 4 µM; in [9] it was 3.91 µM; in assay [10], 3.68 µM. The TGI was 28.1 µM in assay [1]; 13.2 µM in [2]; above 100 µM in [3]; 54.8 µM in assay [4]; 56.1 µM in assay [5]; above 100 µM in [6]. In addition, the TGI in [7] was above 100 µM; in assay [8] it was 14.3 µM; in assay [9] it was above 100 µM; in [10] it was above 100 µM.

In the case of `O=C1/C(=C/c2ccccc2[N+](=O)[O-])COc2ccc(O)cc21`, the GI50 in assay [1] was 1.65 µM; in [2] it was 0.612 µM; in assay [3] it was 0.366 µM; in assay [4] it was 1.02 µM; in assay [5], 1.71 µM; in assay [6], 1.73 µM. The GI50 in assay [7] is 4.49 µM; in [8], 2.98 µM; in [9], 2.27 µM; in assay [10], 1.85 µM. Further, the TGI in assay [1] is 4.62 µM; in assay [2] it was 5 µM; in assay [3] it was above 100 µM; in assay [4], 2.63 µM; in assay [5], 4.27 µM; in assay [6] it was 3.64 µM. For the same compound, the TGI in assay [7] came out at 19.4 µM; in [8] it was 11 µM; in assay [9], 8.23 µM; in assay [10], 4.31 µM.

With `Cn1c(C(=O)c2cccc3ccccc23)nc2ccccc21`, the GI50 in assay [1] is above 100 µM; in [2], above 100 µM; in assay [3], above 100 µM; in [4], 46.1 µM; in [5], above 100 µM; in [6], above 100 µM. Further, the GI50 in assay [7], in [8], in assay [9] and in [10] was above 100 µM each time. In addition, the TGI in assay [1], in [2], in [3], in assay [4], in assay [5] and in assay [6] was above 100 µM each time. Besides, the TGI in [7], in assay [8], in assay [9] and in [10] was above 100 µM in each case.

In the case of `Cc1cc(O)c2c3c(ccc2c1)C(=O)c1c(O)cccc1C3=O`, the TGI in [1] is 0.0846 µM; in [2] it was above 100 µM; in [3] it was 26.5 µM; in [4], above 100 µM; in assay [5], 50.5 µM; in assay [6] it was above 100 µM. Moreover, the TGI in assay [7] is above 100 µM; in assay [8], above 100 µM; in assay [9] it was above 39.1 µM; in assay [10] it was above 37.8 µM.

As to `Nc1nc(-c2ccc(Cl)cc2)nc2c1sc(=S)n2-c1ccccc1`, the GI50 was 2.59 µM in assay [1]; 5.54 µM in [2]; 5.82 µM in [3]; 1.84 µM in assay [4]; 1.62 µM in [5]; 4.98 µM in assay [6]. Further, the GI50 is 3.67 µM in [7], 10.7 µM in [8], above 100 µM in assay [9] and 5.4 µM in assay [10]. Besides, the TGI in assay [1] is 5.67 µM; in [2] it was above 100 µM; in assay [3], above 100 µM; in assay [4], 4.19 µM; in assay [5] it was 3.29 µM; in assay [6], 20.5 µM. For the same compound, the TGI in [7] is 25.4 µM; in assay [8] it was 41.2 µM; in [9], above 100 µM; in assay [10], above 100 µM.

Consider `CC(C)(C)c1cc(C(=O)O)c2c(c1)C(=O)OC2(c1ccccc1)c1ccccc1C(=O)O` (centres undefined), for which the TGI in assay [1], in [2], in assay [3], in assay [4], in assay [5] and in assay [6] was above 100 µM in each case. Further, the TGI in [7], in [8], in assay [9] and in assay [10] was above 100 µM in each case. For the same compound, the GI50 in assay [2] was above 100 µM.

Consider `O=C(c1c(O)cc(O)cc1O)C1Cc2ccccc21` (centres undefined), for which the TGI in [1], in [2], in assay [3], in assay [4], in assay [5] and in [6] was above 100 µM throughout. Besides, the TGI in assay [7], in [8], in assay [9] and in [10] was above 100 µM throughout.

Regarding `N#Cc1cccc(Nc2ncc(-c3ccccc3)o2)c1`, the GI50 in assay [1] is above 25 µM; in assay [2] it was above 25 µM; in assay [3] it was 11.8 µM; in assay [4] it was 7.84 µM; in [5], 10.3 µM; in [6], 16.4 µM. The GI50 in assay [7] was 11.7 µM; in [8], above 25 µM; in [9], above 25 µM; in [10], 8.18 µM. Further, the TGI in [1], in assay [2], in assay [3], in assay [4], in assay [5] and in assay [6] was above 25 µM each time. Moreover, the TGI in assay [7], in assay [8], in assay [9] and in assay [10] was above 25 µM throughout.

`O=S(=O)(O)c1ccc2cc3nn(-c4ccc(/C=C/c5ccc(-n6nc7cc8ccc(S(=O)(=O)O)cc8cc7n6)cc5S(=O)(=O)O)c(S(=O)(=O)O)c4)nc3cc2c1`: the GI50 in assay [1] is above 100 µM; in [2], above 100 µM; in [3], 34.4 µM; in [4] it was 26.1 µM; in [5], above 100 µM; in assay [6], 62.5 µM. Also, the GI50 in [7] is 41.7 µM; in assay [8], above 100 µM; in assay [9], 12.2 µM; in assay [10] it was 30.4 µM. The TGI in [1], in assay [2], in [3], in assay [4], in [5] and in [6] was above 100 µM each time. Also, the TGI in assay [7] is above 100 µM; in assay [8], above 100 µM; in [9], 81.7 µM; in assay [10] it was above 100 µM.

Take `COCCOCCOCCOCCOC(=O)OC[n+]1ccc(NC(=NCCCCCCOc2ccc(Cl)cc2)NC#N)cc1`: the GI50 in [1] is 12.1 µM; in assay [2], below 0.01 µM; in assay [3], 0.0905 µM; in assay [4], 11.3 µM; in [5], below 0.01 µM; in [6], 3.98 µM. Also, the GI50 in assay [7] was 2.22 µM; in assay [8], 11.4 µM; in assay [9] it was 1.95 µM; in [10], below 0.0377 µM. Moreover, the TGI in assay [1] is 29.5 µM; in assay [2], 3.13 µM; in assay [3] it was above 45.6 µM; in [4], 24.1 µM; in assay [5], 13.7 µM; in assay [6], 22 µM. Also, the TGI in assay [7] was found to be 19.2 µM; in [8], 27.3 µM; in assay [9], 19.5 µM; in assay [10], 17.3 µM.

As for `[Cl][Cu][Cl]`, the GI50 in [1], in assay [2], in assay [3], in [4], in assay [5] and in [6] was above 10 µM throughout. For the same compound, the GI50 in [7], in assay [8], in assay [9] and in assay [10] was above 10 µM throughout. Moreover, the TGI in [1], in assay [2], in [3], in [4], in assay [5] and in [6] was above 10 µM in each case. Besides, the TGI in assay [7], in assay [8], in [9] and in [10] was above 10 µM each time.

For the compound `COc1ccc(S(=O)(=O)N2CCNCC2)cc1OC`, the GI50 in [1], in [2], in [3], in assay [4], in [5] and in assay [6] was above 100 µM each time. For the same compound, the GI50 in assay [7], in assay [8], in assay [9] and in assay [10] was above 100 µM throughout. The TGI in assay [1], in assay [2], in assay [3], in assay [4], in [5] and in assay [6] was above 100 µM throughout. The TGI in assay [7], in assay [8], in assay [9] and in assay [10] was above 100 µM in each case.

Regarding `N#CCNC(=O)c1ccc(-c2ccnc(Nc3ccc(N4CCOCC4)cc3)n2)cc1`, the GI50 in [1] was 6.44 µM and 1.26 µM; in assay [2], 3.08 µM and 2.88 µM; in assay [3] it was 0.498 µM and 0.458 µM; in [4], 1.1 µM and 0.36 µM; in assay [5] it was 2.29 µM and 1.14 µM; in assay [6], 3.43 µM and 4.07 µM. Besides, the GI50 in [7] is 4.47 µM and 1.75 µM; in [8] it was 3.97 µM and 2.48 µM; in [9], 2.78 µM and 2.6 µM; in assay [10] it was 3.23 µM and 3.85 µM. In addition, the TGI was > 10 µM and 18.1 µM in assay [1]; above 31.9 µM in assay [2]; 3.88 µM and 5.47 µM in assay [3]; 4.19 µM and 3.4 µM in assay [4]; > 10 µM and 10.4 µM in assay [5]; above 54.4 µM in assay [6]. Also, the TGI in [7] is > 10 µM and 12.4 µM; in [8], > 10 µM and 19 µM; in assay [9] it was above 100 µM; in [10], above 74 µM.
